Publication PMC10608985, “Retention Behavior of Anticancer Thiosemicarbazides in Biomimetic Chromatographic Systems and In Silico Calculations” (Molecules, 2023)

Key:
[1] = HPLC lipophilicity on IAM (immobilized artificial membrane, phosphatidylcholine) stationary phase; type: physicochemical; details: pH 7.4; for Log k IAM: Table S2; for log kw IAM: intercept, linear extrapolation to water; for log kw IAM / -S IAM: ACN/20 mM phosphate buffer; for -S IAM: slope of Soczewiński–Wachtmeister equation
Protocol: (§1) For the evaluation of the compounds the following stationary phases were used: C-18; biomimetic, IAM; cholesterol (Chol); immobilized proteins HSA and AGP. For the lipophilicity determination, MeOH (C-18, Chol) or ACN (IAM) were applied as the organic modifiers. The measurements were performed at pH 7.4 of the mobile phase. The regular changes in the retention of all solutes used as organic modifier content in the mobile phase on three studied stationary phases were found. It is expressed by the Soczewiński–Wachtmeister Equation (1):log k = log kw + S (% organic modifier)(1) where log kw—the intercept; S—the slope of regression curve. […] Log kw as well as S parameters are commonly applied as lipophilicity descriptors.
(§2) HPLC measurements were performed using a liquid chromatograph Knauer (Knauer, Berlin, Germany) with a dual pump, a 20 µL simple injection valve, and a UV–visible detector. The compounds were detected under UV light at 280 nm at room temperature. The retention time of an unretained solute (t0) was determined by the injection of a small amount of citric acid dissolved in water.
A Rexchrom IAM.PC.DD2 (12 μm, 100 × 4.6 mm, 300 Å) (Regis Technologies, Morton Grove, IL, USA) column was used as the stationary phase. The compounds were dissolved at a concentration of 0.5 mg × mL^−1 in MeOH. The mobile phases consisted of different volume fractions of ACN and 20 mM phosphate buffer; the aqueous phase maintained a pH = 7.4 (0.02 M KH2PO4, Na2HPO4 and 0.15 M KCl). The acetonitrile concentration ranged from 0.05 to 0.4 (v/v), depending on the structure of compound, at 0.05 intervals (Table S2 in the Supplementary Materials). The flow rate was 1 mL × min^−1.

[2] = set-up: method as in Kozyra et al. [31]; details: MeOH/20 mM acetate buffer, pH 7.4, ref Kozyra et al. [31], cited from earlier work; for log kw C-18: intercept of Soczewiński–Wachtmeister equation (water as mobile phase); for -S C-18: slope of Soczewiński–Wachtmeister equation
[3] = HPLC lipophilicity on cholesterol (Chol) stationary phase; type: physicochemical; details: pH 7.4; for Log k Chol: Table S3; for log kw Chol: intercept, linear extrapolation to water; for log kw Chol / -S Chol: MeOH/20 mM acetate buffer; for -S Chol: slope of Soczewiński–Wachtmeister equation
Protocol: as §1, §2
Cogent 4 UDC Cholesterol (150 × 2.1 mm, 4 µm) MicroSolv Technology Corporation (Leland, NC, USA) column was used. The mobile phase consisted of different volume mixtures of MeOH as the organic modifier and 20 mM acetate buffer as the aqueous phase, to obtain pH = 7.4. The concentrations of the organic modifier were in the range from 0.3 to 0.8 (v/v) with step 0.05 or 0.1 (Table S3 in the Supplementary Materials). The flow rate was 0.35 mL × min^−1.

[4] = target: T1, human serum albumin (HSA) (Homo sapiens, UniProt P02768); assay: HPLC on immobilized HSA column, affinity and % plasma–protein binding; type: in vitro ADME; details: for log K HSA: binding equilibrium constant from calibration curve (Equation 8) of log k HSA; for fraction unbound: human, pH 7.4, % plasma–protein binding converted from log K HSA (Equation 10), read-out: %PPB HSA (converted); for log k HSA: retention on HSA column, 50 mM ammonium acetate pH 7.4 / propan-2-ol 85/15 (v/v)
T1 construct: purchased Chiralpac
T1 sequence (P02768 25-609): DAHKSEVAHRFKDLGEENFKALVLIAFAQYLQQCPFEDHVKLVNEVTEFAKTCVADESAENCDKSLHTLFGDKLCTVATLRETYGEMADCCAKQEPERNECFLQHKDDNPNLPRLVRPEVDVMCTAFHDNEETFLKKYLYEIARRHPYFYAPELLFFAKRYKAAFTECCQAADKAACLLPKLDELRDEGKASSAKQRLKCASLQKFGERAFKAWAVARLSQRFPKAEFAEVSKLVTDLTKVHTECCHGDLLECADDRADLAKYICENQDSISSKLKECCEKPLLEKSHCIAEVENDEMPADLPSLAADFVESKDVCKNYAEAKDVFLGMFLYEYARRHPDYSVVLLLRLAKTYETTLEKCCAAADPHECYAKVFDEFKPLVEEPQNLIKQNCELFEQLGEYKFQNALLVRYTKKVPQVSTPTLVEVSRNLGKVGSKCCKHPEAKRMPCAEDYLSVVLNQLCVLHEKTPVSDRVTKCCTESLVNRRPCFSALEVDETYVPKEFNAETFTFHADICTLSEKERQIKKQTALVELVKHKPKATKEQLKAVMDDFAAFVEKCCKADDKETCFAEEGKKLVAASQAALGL
Protocol: (§3) Measurements on HSA and AGP immobilized protein columns were carried out with […] isopropanol content in the aqueous mobile phase.
(§4) The standard calibration curve was used to predict log K values (K—binding equilibrium constant) of investigated compounds to HSA and AGP. Next, the log K values were converted into a percentage of plasma–protein binding (%PPB) of the compounds (Table 2). […] It is the lowest for compound 16 with -NO2 substituent, unsubstituted compound 1, and fluorine derivatives 2 and 9. In a group of […] derivatives in the same position of the phenyl ring, the %PPB to AGP increases with the increase in the atomic weight of the halogen atom and the lipophilicity of the molecule.
as §2
(§5) A human serum albumin (HSA) immobilized on the 5 µm silica gel column 100 × 3 mm (Chiralpac) and an α1-acid glycoprotein (AGP) immobilized on the 5 µm silica gel column 100 × 4 mm (Chiralpac) were used. The compounds were dissolved at 0.5 mg/mL concentration in 50% propan-2-ol and ammonium acetate solution (pH = 7.4) mixtures for HSA measurements. The mobile phase was composed of 50 mM ammonium acetate solution (pH = 7.4) and propan-2-ol at 85/15 (v/v) for AGP, respectively. The flow of mobile phases was 0.5 mL×min^−1. Log k values for the selected mobile phase were determined for all studied compounds and standard substances. The % protein plasma binding (% PPB) values were calculated from the calibration curve according to Valko et al..
(§6) Calibration of the protein columns: The column performance check and the calibration check were performed before measurements. The racemic mixture of warfarin was used for their performance evaluation. The following calibration set of drugs was applied: bromazepam, carbamazepine, diclofenac, nicardipine, nizatidine, piroxicam for HSA and bromazepam, chlorpromazine, imipramine, nicardipine, nizatidine, propranolol, and warfarin for AGP. The analytical standards were purchased from Sigma Aldrich Steinhen, Steinheim am Albuch, Germany). The drugs were dissolved at 0.5 mg/mL concentration in 50% propan-2-ol and ammonium acetate solution mixtures (pH = 7.4). The obtained log k values from HPLC were plotted against the log K values (K—binding equilibrium constant, log K—linearized PPB) based on the literature data for plasma–protein binding (%, PPB). The following relationships were obtained: log KHSA = 0.2513 (±0.0984) + 1.0525 (±0.1171) log k HSA(8) n=6, R=0.9761, R^2 = 0.9528, Radj2 = 0.9410, s = 0.1948 log KAGP = 0.1733 (±0.0574) + 0.8902 (±0.0787) log k AGP(9) n=7, R=0.9810, R^2 = 0.9623, Radj2 = 0.9548, s = 0.1113
(§7) Log K values were converted into %PPB using the following equation [15]:(10) %PPB=101×10^logK/1+10^logK

[5] = test system: α1-acid glycoprotein (AGP); assay: HPLC on immobilized AGP column, affinity and % plasma–protein binding; type: in vitro ADME, human; details: for log K AGP: binding equilibrium constant from calibration curve (Equation 9) of log k AGP; for fraction unbound: human, pH 7.4, % plasma–protein binding converted from log K AGP (Equation 10), read-out: %PPB AGP (converted); for log k AGP: retention on AGP column, 50 mM ammonium acetate pH 7.4 / propan-2-ol 85/15 (v/v)
Protocol: as §3, §4, §2, §5, §6, §7

Row | Structure (SMILES) | Log k IAM ([1]; ACN 0.15 v/v in mobile phase) | Log k IAM ([1]; ACN 0.20 v/v in mobile phase) | Log k IAM ([1]; ACN 0.25 v/v in mobile phase) | Log k IAM ([1]; ACN 0.30 v/v in mobile phase) | Log k IAM ([1]; ACN 0.35 v/v in mobile phase) | log kw IAM [1] | -S IAM [1] | log kw C-18 [2] | -S C-18 [2] | Log k Chol ([3]; MeOH 0.40 v/v in mobile phase) | Log k Chol ([3]; MeOH 0.45 v/v in mobile phase) | Log k Chol ([3]; MeOH 0.50 v/v in mobile phase) | Log k Chol ([3]; MeOH 0.60 v/v in mobile phase) | Log k Chol ([3]; MeOH 0.80 v/v in mobile phase) | log kw Chol [3] | -S Chol [3] | log K HSA [4] | log k HSA [4] | log K AGP [5] | fraction unbound [5] | further results
1 | O=C(COc1ccccc1)NNC(=S)Nc1cccc(Cl)c1 [Compound 6] | 0.982 | 0.647 | 0.333 | -0.082 | -0.247 | 1.9101 | 6.3395 | 2.7672 | 4.8532 | 1.016 | 0.766 | 0.422 | 0.160 | -0.975 | 2.9670 | 4.8849 | 1.3217 | 1.0170 | 0.6152 | 0.187 | Log k IAM ([1]; ACN 0.10 v/v in mobile phase): 1.270; Log k Chol ([3]; MeOH 0.35 v/v in mobile phase): 1.270; fraction unbound [4]: 0.036; log k AGP [5]: 0.4964
2 | O=C(COc1ccccc1)NNC(=S)Nc1cccc(Br)c1 [Compound 7] | 1.120 | 0.777 | 0.413 | -0.038 | -0.196 | 2.1389 | 6.8947 | 2.8451 | 4.8454 | 1.284 | 0.913 | 0.720 | 0.347 | -0.987 | 3.4508 | 5.4314 | 2.2501 | 1.8991 | 0.6968 | 0.159 | Log k Chol ([3]; MeOH 0.70 v/v in mobile phase): -0.309; log k AGP [5]: 0.5881
3 | O=C(COc1ccccc1)NNC(=S)Nc1cccc(I)c1 [Compound 8] | 1.304 | 0.952 | 0.573 | 0.088 | -0.074 | 2.3083 | 6.9157 | 3.0072 | 4.9651 | 1.443 | 1.026 | 0.834 | 0.522 | -0.984 | 3.7019 | 5.6623 | 2.1342 | 1.7890 | 0.8556 | 0.114 | Log k IAM ([1]; ACN 0.40 v/v in mobile phase): -0.404; Log k Chol ([3]; MeOH 0.70 v/v in mobile phase): -0.165; log k AGP [5]: 0.7664
4 | O=C(COc1ccccc1)NNC(=S)Nc1ccc(F)cc1 [Compound 9] | 0.336 | 0.088 | -0.150 | -0.484 | -0.467 | 1.1652 | 5.1370 | 2.1145 | 4.2984 | 0.696 | 0.523 | 0.179 | -0.078 | -0.997 | 2.4029 | 4.2398 | 1.2852 | 0.9823 | 0.3891 | 0.283 | Log k IAM ([1]; ACN 0.05 v/v in mobile phase): 1.054; Log k IAM ([1]; ACN 0.10 v/v in mobile phase): 0.588; Log k Chol ([3]; MeOH 0.30 v/v in mobile phase): 1.111; Log k Chol ([3]; MeOH 0.35 v/v in mobile phase): 0.970; fraction unbound [4]: 0.04; log k AGP [5]: 0.2424
5 | O=C(COc1ccccc1)NNC(=S)Nc1ccc(Cl)cc1 [Compound 10] | 1.009 | 0.673 | 0.368 | -0.038 | -0.210 | 1.8779 | 6.0976 | 2.5914 | 4.5132 | 1.050 | 0.836 | 0.479 | 0.206 | -0.946 | 2.9842 | 4.8387 | 1.9333 | 1.5981 | 0.5075 | 0.23 | Log k IAM ([1]; ACN 0.10 v/v in mobile phase): 1.235; Log k Chol ([3]; MeOH 0.30 v/v in mobile phase): 1.475; Log k Chol ([3]; MeOH 0.35 v/v in mobile phase): 1.331; Log k Chol ([3]; MeOH 0.70 v/v in mobile phase): -0.396; fraction unbound [4]: 0.002; log k AGP [5]: 0.3754
6 | O=C(COc1ccccc1)NNC(=S)Nc1ccc(Br)cc1 [Compound 11] | 1.141 | 0.792 | 0.453 | 0.004 | -0.111 | 2.1020 | 6.5856 | 2.734 | 4.6183 | 1.158 | 0.871 | 0.571 | 0.276 | -0.886 | 3.1674 | 5.0251 | 2.0248 | 1.685 | 0.6344 | 0.18 | Log k Chol ([3]; MeOH 0.35 v/v in mobile phase): 1.437; log k AGP [5]: 0.518
